# Measured values taken from patent US20130252950A1, “TARGETING MTOR SUBSTRATES IN TREATING PROLIFERATIVE DISEASES” (President and Fellows of Harvard College, priority 2010, published 2013).
# How the values were obtained:
# [1] = system: Grb10 protein in TSC2−/− cells; experiment: Immunoblot of Grb10 protein level after long-term treatment; assay type: cell-based, mouse; conditions: TSC2−/− MEFs stably expressing HA-tagged Grb10-DD, long-term 20 nM rapamycin
# From the text: (§1) FIG. 3. mTOR-mediated Grb10 phosphorylation is important for Grb10 stability. (A) Grb10 interacts with raptor, but not rictor. HA-tagged Grb10 was co-transfected with Myc-raptor or Myc-rictor in HEK293T cells. Cells were lysed in lysis buffer A, and the lysates were subjected to immunoprecipitation using anti-HA antibody conjugated beads. Raptor and rictor were probed with an antibody against the Myc-tag. (B) Grb10 is phosphorylated by mTOR in vitro. […] Phosphorylation of Grb10 at S501/S503 was detected by using the phospho-specific antibody against these two sites. (C) Long-term rapamycin treatment leads to Grb10 degradation in TSC2−/− cells. Note that Grb10 protein expression levels inversely correlated with Akt activity. Grb10 is highly overexpressed in TSC2−/− cells. mRNA level was determined using quantitative RT-PCR based on three biological replicate experiments. (D) Knockdown of raptor in TSC2−/− cells decreased Grb10 protein level. Cells were starved overnight and the lysates were probed with the antibodies indicated. (E) Grb10 is highly overexpressed in TSC2−/− cells. (F) S501A/S503A mutant is unstable compared with the wild-type or the S501D/S503D mutant. The same amount of DNA was transfected into HEK293T cells. […] Endogenous Grb10 was detected using an antibody that preferentially recognizes mouse Grb10 whereas the Grb10 DD mutant (of human origin) was detected using an anti-HA antibody.
# FIG. 9. Phosphorylation of Grb10 at S501/S503 regulates its stability. […] Preincubation of the antibody with the […] completely eliminated the immunoreactivity. (B) Further validation of the phospho-specific antibody raised against the Grb10 S501/S503 sites. Grb10 WT, S501A/S503A (AA) and S501D/S503D (DD) were transfected into HEK239T cells and were probed with the antibody. Note that this antibody detected wild type (WT) Grb10, but neither of the mutant proteins. (C) Treatment of TSC2−/− cells with various mTOR kinase inhibitors led to Grb10 degradation. […] (E) Grb10 is highly overexpressed in TSC1−/− cells compared with their wild-type counterparts. (F) rapamycin treatment of TSC2−/− cells stably expressing wild type (WT) Grb10 led to lower levels of both endogenous and exogenous Grb10.
# In addition, long-term treatment with mTOR kinase inhibitors, including LY-294002, NVP-BEZ235, torin and pp 242 all led to reduced Grb10 protein expression (FIG. 9C). Similar results were obtained in TSC1−/− MEFs (FIG. 9D). In contrast, we found Grb10 was highly overexpressed in TSC2−/− and TSC1−/− MEFs compared with their wild-type counterparts (FIGS. 3E and 9E), correlating with elevated mTORC1 activity in these cells. […]
# [2] = system: Grb10 mRNA in TSC2−/− cells; experiment: Quantitative RT-PCR of Grb10 mRNA; assay type: cell-based, mouse; conditions: three biological replicates
# From the text: as §1, with “Note that Grb10 protein expression levels inversely correlated with Akt activity.” left out, “experiments.” for “experiments. (D) Knockdown of raptor in TSC2−/− cells decreased Grb10 protein level. Cells were starved overnight and the lysates were probed with the antibodies indicated. (E) Grb10 is highly overexpressed in TSC2−/− cells. (F) S501A/S503A mutant is unstable compared with the wild-type or the S501D/S503D mutant. The same amount of DNA was transfected into HEK293T cells.”, “antibody. […]” for “antibody.”
# Total cellular RNA was purified from cultured cells using the RNeasy mini kit (Qiagen) following the manufacturer's protocol. For quantitative real-time PCR (qRT-PCR), RNA was reverse-transcribed using the High-Capacity cDNA Reverse Transcription Kit (Applied Biosystems) according to the manufacturer's instructions. The resulting cDNA was analyzed by qRT-PCR using the QuantiTect SYBR Green qPCR System (Qiagen). […]
smiles,measurement,setting,value
CO[C@H]1C[C@@H]2CC[C@@H](C)[C@@](O)(O2)C(=O)C(=O)N2CCCC[C@H]2C(=O)O[C@H]([C@H](C)C[C@@H]2CC[C@@H](O)[C@H](OC)C2)CC(=O)[C@H](C)/C=C(\C)[C@@H](O)[C@@H](OC)C(=O)[C@H](C)C[C@H](C)/C=C/C=C/C=C/1C [rapamycin],Grb10 S501D/S503D (DD) mutant protein levels,[1],no effect
same,decrease in Grb10 mRNA levels after long-term rapamycin,[2],approximately 2 fold
